According to patent US9937250B2, “Immunogenic tumor associated stromal cell antigen peptides and methods of their use” (University of Pittsburgh—Of the Commonwealth System of …, priority 2011, dated 2018):

Tests used:
CD8+ splenocytes = assay: Tc1 response to DC.IL12/peptide vaccination (splenic CD8+ T cell IFN-γ ELISA against peptide-pulsed T2 cells); format: in vivo, HHD mice; conditions: DC.IL12 pulsed with peptide(s), two s.c. vaccinations; versus DC only
Excerpt: FIGS. 9A-9B show a series of graphs illustrating induction of specific/protective CD8^+ T cells reactive against TASA as a consequence of DC/peptide-based vaccination. In FIG. 9A, HHD mice (five animals/cohort) were vaccinated twice (d-14, d-7) subcutaneously with PBS or with isologous DC.IL12 pulsed with PBS or synthetic peptides (Table 6) derived from the indicated TASA. In cases where more than 1 peptide was identified for a given target antigen, an equimolar pool of the indicated peptides (each 10 μM) was pulsed onto DC.IL12 and used for vaccination in the relevant cohort. One week after the second immunization, spleens were harvested and splenic CD8^+ T cells isolated using MACS-beads (Miltenyi). T cells were stimulated in vitro for 48 h using the HLA-A2^+ T2 cell line pulsed with relevant TASA vs. irrelevant HIV-nef190-198 ([…]; ref. 24) peptides. Cell-free supernatants were then recovered and IFN-γ levels by ELISA. Data are reported as mean+/−SD for triplicate ELISA determinations, and are representative of 3 independent experiments performed. *p<0.05 vs. HIV-nef control peptide responses. In FIG. 9B, HHD mice were vaccinated twice (days −14 and −7; right flank) subcutaneously with PBS or with isologous DC.IL12 pulsed with PBS or synthetic TASA peptides as indicated in FIG. 1A. In cases where more than 1 peptide is identified for a given target antigen, an equimolar pool of the indicated peptides (each 10 μM) was pulsed onto DC.IL12 and used for vaccination in the relevant cohort. One week after the booster vaccine (i.e. day zero), animals were challenged subcutaneously on their left flank with 2×10^6 MC38 colon carcinoma cells. Tumor growth was then monitored every 3-4 days through day 24. All data represent mean tumor area (in mm^2)+/−SD determined from 5 mice/cohort, and are representative of three independent experiments performed. *p<0.05 versus DC only on the indicated days.
Vaccine Experiments. For prophylactic experiments, HHD mice were immunized subcutaneously on the right flank with 100 μl PBS or PBS containing 10^6 syngenic DC.IL12 cells that had been untreated or pre-pulsed for 4 h at 37° C. with 10 μM synthetic peptide(s). Immunizations occurred on days −14 and −7, with mice subsequently receiving injections of MC38 (2×10^6) tumor cells in the left flank on d0. In all cases, treatment groups contained 5 mice per cohort. For analysis of tumor cellular composition in repeat experiments, MC38 tumors were isolated by surgical resection 10 days after tumor inoculation and prepared for fluorescence imaging, as described below. […] Mice were then untreated or treated with control, syngenic DC.IL12 or DC.IL12 (10^6 cells injected subcutaneously in the left flank on days 7 and 14) pulsed with synthetic TBVA peptides. In some assays, as indicated, in vivo antibody depletions (on days 6, 13 and 20 post-tumor inoculation to assess early involvement or on days 60 and 67 or 180 and 187 to assess late involvement) of protective CD4^+ T cells or CD8^+ T cells were performed and monitored as previously described (Zhao et al., Mol Ther., 19:805-814, 2011). In all cases, tumor size (area) was monitored every 3-4 days and is reported as mean+/−SD in mm^2.
(§1) Evaluation of Specific CD8^+ T Cell Responses in HHD Mice. MACS (Miltenyi Biotec) CD8^+ splenocytes were harvested (from 3 mice/group) 7 days after the second round of DC-based vaccination (i.e. day 21 after tumor inoculation) and analyzed for reactivity against unpulsed T2 cells, TBVA peptide-pulsed T2 cells, or day 19 (flow-sorted) B16-derived PDGFRβ^+CD31^negH-2K^b(neg) pericytes or PDGFRβ^negCD31^+H-2K^b(neg) VEC isolated as previously described (Zhao et al., Mol Ther., 19:805-814, 2011). Where indicated, 10 μg of anti-HLA-A2 mAb BB7.2 or control anti-class II mAb L243 (both from ATCC, Manassas, Va.) were added to replicate co-culture wells. After 48 h, supernatants were analyzed for mIFN-γ content by specific ELISA (BD-Biosciences; lower detection limit=31.3 pg/ml). […]

[1] = system: tumor-associated pericytes and VEC; assay: Day 60 splenic CD8+ T cell IFN-γ response in mice cured of B16 by vaccination; format: cell-based, HHD mice; conditions: 60 days after tumor inoculation, IFN-γ ELISA (FIG. 12)
Excerpt: HHD mice bearing established day seven B16 melanomas were therapeutically vaccinated with peptides derived from the TASA DLK1 or RGS5 as described in FIG. 11B. Tumors regressed to a non-detectable level over the next two weeks. Sixty days after tumor inoculation, CD8^+ T cells were MACS-isolated from the spleens of these animals and evaluated for IFN-γ production (by ELISA) in response to pericytes and VEC (flow-sorted from day 19 untreated B16 tumors or tumor-uninvolved kidneys of B16-bearing HHD mice), as well as, HLA-A2^+ T2 cells (control or pulsed with the indicated peptides). *p<0.05 versus anti-class I mAb blockade (when evaluating responses against pericytes, VEC or B16 tumor cells) or T2 cells only (when evaluating anti-peptide responses). […]
as §1, with “Where indicated, 10 μg of anti-HLA-A2 mAb BB7.2 or control anti-class II mAb L243 (both from ATCC, Manassas, Va.) were added to replicate co-culture wells.” left out

Sequence: LAALPHSCL (listed as Homo sapiens)
- Tc1 Response to Peptide Vaccine (HHD) (CD8+ splenocytes): + (+, p < 0.05 versus DC only)
- Tc1 recognition of tumor pericytes/VEC by splenic CD8+ T cells of cured mice [1]: clear Tc1 recognition of tumor (but not tumor-uninvolved kidney) pericytes
